Measured values: PubChem BioAssay AID1963447 (Molecular Pharmacology Branch, DTP, NCI, 2024)

Test system: 885512-296-R-J2-PDC complex spheroid growth, % test/control
Assay: Anticancer human tumor 885512-296-R-J2-PDC patient-derived breast carcinoma cell line growth inhibition [Asc]
Settings: for IC50: curve of first compound; for viability, T/C: stronger effect = lower value
Procedure, shortened: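 Complex spheroids combining tumor cells with HUVEC endothelial cells and human MSCs, at 37 degrees C, 5% CO2; agents tested alone or combined, half-log dilutions from at or near clinical Cmax, or 10 microM if Cmax unknown.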
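Also: spheroids exposed to compounds for seven days.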
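For viability, T/C in this document: 100% = DMSO vehicle control wells.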

Compound: NC(=O)C(=Cn1cnc(-c2cc(C(F)(F)F)cc(C(F)(F)F)c2)n1)c1cncnc1 + Cc1c(S(C)(=O)=O)c(-c2cc(F)cc(N3CCN(c4ccc(NS(=O)(=O)c5ccc(NC(CCN6CCC(C(=O)OCCCP(=O)(O)O)CC6)CSc6ccccc6)c(S(=O)(=O)C(F)(F)F)c5)cc4)CC3)c2)c(-c2ccc(Cl)cc2)n1C(C)C
- IC50 (second compound 0.1 µM): 40.1 nM
- IC50 (second compound 0.316 µM): 38.9 nM
- IC50 (second compound 1 µM): 39.1 nM
- IC50 (second compound 3.16 µM): 41.3 nM
- IC50 (second compound 10 µM): 46.1 nM
- viability, T/C (second compound 0.1 µM, first compound 0.000949 µM): 92.8%
- viability, T/C (second compound 0.1 µM, first compound 0.003 µM): 74.5%
- viability, T/C (second compound 0.1 µM, first compound 0.00949 µM): 81.9%
- viability, T/C (second compound 0.1 µM, first compound 0.03 µM): 65.5%
- viability, T/C (second compound 0.1 µM, first compound 0.0949 µM): 4.49%
- viability, T/C (second compound 0.1 µM, first compound 0.3 µM): 0.26%
- viability, T/C (second compound 0.316 µM, first compound 0.000949 µM): 75.8%
- viability, T/C (second compound 0.316 µM, first compound 0.003 µM): 102%
- viability, T/C (second compound 0.316 µM, first compound 0.00949 µM): 83%
- viability, T/C (second compound 0.316 µM, first compound 0.03 µM): 63.3%
- viability, T/C (second compound 0.316 µM, first compound 0.0949 µM): 4.42%
- viability, T/C (second compound 0.316 µM, first compound 0.3 µM): 3.46%
- viability, T/C (second compound 1 µM, first compound 0.000949 µM): 68.8%
- viability, T/C (second compound 1 µM, first compound 0.003 µM): 89.2%
- viability, T/C (second compound 1 µM, first compound 0.00949 µM): 102%
- viability, T/C (second compound 1 µM, first compound 0.03 µM): 64.4%
- viability, T/C (second compound 1 µM, first compound 0.0949 µM): 3.77%
- viability, T/C (second compound 1 µM, first compound 0.3 µM): 0.23%
- viability, T/C (second compound 3.16 µM, first compound 0.000949 µM): 92.9%
- viability, T/C (second compound 3.16 µM, first compound 0.003 µM): 88.1%
- viability, T/C (second compound 3.16 µM, first compound 0.00949 µM): 105%
- viability, T/C (second compound 3.16 µM, first compound 0.03 µM): 67.9%
- viability, T/C (second compound 3.16 µM, first compound 0.0949 µM): 4.78%
- viability, T/C (second compound 3.16 µM, first compound 0.3 µM): 0.2%
- viability, T/C (second compound 10 µM, first compound 0.000949 µM): 117%
- viability, T/C (second compound 10 µM, first compound 0.003 µM): 105%
- viability, T/C (second compound 10 µM, first compound 0.00949 µM): 89.7%
- viability, T/C (second compound 10 µM, first compound 0.03 µM): 78%
- viability, T/C (second compound 10 µM, first compound 0.0949 µM): 2.71%
- viability, T/C (second compound 10 µM, first compound 0.3 µM): 0.25%

Compound: Cn1ncnc1[C@H]1c2n[nH]c(=O)c3cc(F)cc(c23)N[C@@H]1c1ccc(F)cc1 + CCN1C(C(=O)NC23CCC(C(=O)O)(CC2)CC3)C(c2cccc(Cl)c2F)C2(C(=O)Nc3cc(Cl)ccc32)C12CCCCC2
- IC50 (second compound 0.03 µM): 37.8 nM
- IC50 (second compound 0.0949 µM): 54.2 nM
- IC50 (second compound 0.3 µM): 21 nM
- IC50 (second compound 0.949 µM): 23.5 nM
- IC50 (second compound 3 µM): < 0.316 nM
- viability, T/C (second compound 0.03 µM, first compound 0.000316 µM): 88.7%
- viability, T/C (second compound 0.03 µM, first compound 0.001 µM): 107%
- viability, T/C (second compound 0.03 µM, first compound 0.00316 µM): 91.6%
- viability, T/C (second compound 0.03 µM, first compound 0.01 µM): 66.9%
- viability, T/C (second compound 0.03 µM, first compound 0.0316 µM): 58%
- viability, T/C (second compound 0.03 µM, first compound 0.1 µM): 35.5%
- viability, T/C (second compound 0.0949 µM, first compound 0.000316 µM): 91%
- viability, T/C (second compound 0.0949 µM, first compound 0.001 µM): 101%
- viability, T/C (second compound 0.0949 µM, first compound 0.00316 µM): 93.3%
- viability, T/C (second compound 0.0949 µM, first compound 0.01 µM): 76.2%
- viability, T/C (second compound 0.0949 µM, first compound 0.0316 µM): 57%
- viability, T/C (second compound 0.0949 µM, first compound 0.1 µM): 43.1%
- viability, T/C (second compound 0.3 µM, first compound 0.000316 µM): 80.5%
- viability, T/C (second compound 0.3 µM, first compound 0.001 µM): 90.8%
- viability, T/C (second compound 0.3 µM, first compound 0.00316 µM): 88%
- viability, T/C (second compound 0.3 µM, first compound 0.01 µM): 60%
- viability, T/C (second compound 0.3 µM, first compound 0.0316 µM): 49.2%
- viability, T/C (second compound 0.3 µM, first compound 0.1 µM): 35.2%
- viability, T/C (second compound 0.949 µM, first compound 0.000316 µM): 80.2%
- viability, T/C (second compound 0.949 µM, first compound 0.001 µM): 72.6%
- viability, T/C (second compound 0.949 µM, first compound 0.00316 µM): 63.1%
- viability, T/C (second compound 0.949 µM, first compound 0.01 µM): 60.5%
- viability, T/C (second compound 0.949 µM, first compound 0.0316 µM): 47.7%
- viability, T/C (second compound 0.949 µM, first compound 0.1 µM): 35.3%
- viability, T/C (second compound 3 µM, first compound 0.000316 µM): 43.9%
- viability, T/C (second compound 3 µM, first compound 0.001 µM): 40.2%
- viability, T/C (second compound 3 µM, first compound 0.00316 µM): 41.8%
- viability, T/C (second compound 3 µM, first compound 0.01 µM): 38.4%
- viability, T/C (second compound 3 µM, first compound 0.0316 µM): 40.2%
- viability, T/C (second compound 3 µM, first compound 0.1 µM): 31.6%
